We go through four compounds from ChEMBL document CHEMBL1135267 (Bioorg Med Chem Lett, 2002).

For this assay, the target named is T1, Aromatase (Homo sapiens, UniProt P11511).
T1 sequence (P11511 whole entry): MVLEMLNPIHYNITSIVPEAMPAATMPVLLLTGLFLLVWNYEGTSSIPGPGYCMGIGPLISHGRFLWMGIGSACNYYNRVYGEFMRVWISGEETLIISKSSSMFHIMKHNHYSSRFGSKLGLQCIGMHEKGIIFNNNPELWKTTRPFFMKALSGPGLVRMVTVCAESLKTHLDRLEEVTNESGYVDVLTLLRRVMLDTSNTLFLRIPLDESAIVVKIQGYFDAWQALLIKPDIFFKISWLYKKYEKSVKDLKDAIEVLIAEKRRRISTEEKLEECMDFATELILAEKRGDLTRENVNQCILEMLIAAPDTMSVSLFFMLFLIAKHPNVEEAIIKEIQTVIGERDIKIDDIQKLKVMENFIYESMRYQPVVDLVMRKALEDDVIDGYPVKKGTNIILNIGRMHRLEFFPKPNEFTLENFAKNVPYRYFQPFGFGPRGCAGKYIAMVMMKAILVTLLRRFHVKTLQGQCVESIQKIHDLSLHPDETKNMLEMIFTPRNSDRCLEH
For orientation: IC50 means the concentration needed to halve the response being measured. High values mean a need for much substance, low ones inhibition by little substance. `O=C1/C(=C/c2ccncc2)C(c2ccccc2)Oc2ccccc21` (centres undefined) yielded an IC50 of 800 nM.
In the case of `COc1ccc2c(c1)OC(c1ccccc1)/C(=C\c1ccncc1)C2=O` (centres undefined), 620 nM corresponded to half-maximal inhibition (IC50).
On to `O=C1/C(=C\c2ccncc2)C(c2ccccc2)Oc2ccccc21` (mixture of isomers), for which it took 3300 nM to reach half-maximal inhibition (IC50).
Under `COc1ccc2c(c1)OC(c1ccccc1)/C(=C/c1ccncc1)C2=O` (mixture of isomers) stands 1600 nM.
